The record followed here is a melting point compilation (Tetko et al.; mined from patent text by program, amines drawn as free bases though some values may be those of a salt).

SMILES strings stand for the structures.

As usually defined, the melting point is the temperature, or range, at which the solid turns liquid. In turn, `CCCCc1oc2ccccc2c1-c1ccc(-c2ccc(OC(Cc3ccccc3)C(=O)O)cc2)cc1` (stereo not given) displayed a melting point of 169 to 170 °C.

`CCCn1c(=O)c(C(=O)OCC)c(O)c2cnc(SC)nc21` showed a melting point of 130 to 133 °C.

Regarding `O=C(c1cccs1)c1cnn2c(-c3cccc(F)c3)ccnc12`, the melting point lay within 235 to 237 °C.

`COc1ccc2c(Cl)noc2c1Br`: the melting point was 134 to 135 °C.

`CC(Oc1cccc(C=Cc2ccc3ccc(Cl)cc3n2)c1)C(=O)O` (single isomer, unassigned; (-)): the melting point lay in the range of 103 to 105 °C.

Molecule `Cc1ccc(SN=C2C(=O)N3C(C(=O)OC(c4ccccc4)c4ccccc4)=C(CSc4nnnn4C)CSC23)cc1` (stereo not given) showed a melting point of 154 to 155 °C.

`Cc1ccc(C)n1-c1ccc(C=CC(=O)O)cc1` came in with a melting point of 184 to 185 °C.

`COc1ccc(S(=O)(=O)Nc2cc(Cl)cc(Cl)c2OC)cc1N1CCNCC1` came in with a melting point of 189 to 190 °C.

As for `Cc1onc(-c2ccc(C(F)(F)F)cc2)c1CCC(=O)O`, the melting point was in the range of 138 to 139 °C.

With `CCOc1nc(N2CCNCC2)nc(N2CCSCC2)c1[N+](=O)[O-]`, the melting point is 166 to 168 °C.

`CCOC(=O)c1cc2cccc(N(CC)S(=O)(=O)c3cccs3)c2[nH]1` showed a melting point of 124 to 125 °C.

In the case of `COC(=O)[C@@H]1[C@H](/C=C/c2ccccc2)N1S(=O)c1ccc(C)cc1` (stereo not given in full), the melting point fell in the range of 107 to 109 °C.

Regarding `CCOC(OCC)c1cc(NC(c2ccccc2)(c2ccccc2)c2ccccc2)c(F)c(-c2ccc(Cl)c(OC)c2F)n1`, the melting point was 177 to 180 °C.

For the molecule `CCC(C)(C)c1ccc(OCCCNC(=O)c2cc(NC(=O)C(Cl)(Cl)Cl)c3ccccc3c2O)c(C(C)(C)CC)c1`, the melting point lay in the range of 190 to 192 °C.

`CC1(C)C=C(c2cccnc2)c2cc(Cl)c(Cl)cc2OC1` returned a melting point of 112 °C.

Turning to `COc1c(C)cnc(CSc2nc(C)cc(=O)[nH]2)c1C`, the melting point was in the range of 231 to 233 °C.

`CCC(C)NC(=O)C1=C(C(=O)Nc2cc(OC3CCCC3)c(Cl)cc2F)CCCC1` (stereo not given) came in with a melting point of 174 to 175 °C.

Turning to `CCc1cccc(NC(=N)Nc2cccc3ccccc23)c1`, the melting point is 96 to 98 °C.

Molecule `CC(O)c1ccc2cc(OCc3ccccc3)ccc2c1` (stereo not given) registered a melting point of 97 to 98 °C.

Regarding `Cc1ncc2cc(-c3c(Cl)cccc3Cl)c(NS(C)(=O)=O)nc2n1`, the melting point lay within 212 to 213 °C.

In turn, `CN(C)c1cccc(CC(=O)C(F)(F)c2ccccc2)c1` showed a melting point of 76 to 77 °C.

In turn, `CC(C)(C)OC(=O)N1CCc2ccccc2CC1` yielded a melting point of 88 to 89 °C.

The molecule `O=C(Cc1ccccn1)c1ccc2ncccc2c1` gave a melting point of 104 °C.

The molecule `O=C1CN(Cc2ccccn2)CC(=O)N1CCCN1CCN(c2ccc(F)cc2)CC1` yielded a melting point of 90 °C.

The molecule `COc1ccccc1-n1c(=O)[nH]c2c(C(N)=O)nc(-c3ccnc(O)c3)nc21` gave a melting point of 360 to 362 °C.

`CC(=O)NC[C@H]1CN(c2ccc(N3C=CS(=O)(=O)CC3)c(F)c2)C(=O)O1`: the melting point lay in the range of 193 to 194 °C.

As to `Cc1ncnc2nc(N)c(-c3c(Cl)cccc3Cl)cc12`, the melting point fell in the range of 280 to 282 °C.

For `CC(C)CC1N=C(c2ccccc2)c2cc(Cl)ccc2N=C1NN` (stereo not given), the melting point lay in the range of 165 to 168 °C.

For the molecule `Cc1ccccc1NC(=O)CN1CCN(c2ncccc2C#N)CC1`, the melting point fell in the range of 123 to 125 °C.

`CCC(C)(C)C(=O)Oc1cccc2ccc(OCCOc3ccc(C(=O)C(=O)O)cc3)cc12` registered a melting point of 167 to 168 °C.

`CCSc1ccc(-c2coc3ccc(-c4nnc(C)o4)cc23)c(Cl)c1` returned a melting point of 108 to 109 °C.

As to `COc1cc(N)c(Cl)cc1C(=O)N[C@H]1CCN(CCNc2nc3ccccc3[nH]2)C[C@H]1OC` (relative stereo), the melting point came out at 206 °C.

On to `COC(=O)C(C)=Cc1cc(NC(=S)N2CCCCN2)ccc1Cl`, for which the melting point fell in the range of 120 to 121 °C.

`CCCCCCCC1(C(=O)OC)CCC(C2CCC(CCC)CC2)CC1` (stereo not given) gave a melting point of 49 °C.

For `NS(=O)(=O)c1nn(-c2ccccn2)cc1Br`, the melting point was in the range of 145 to 146 °C.

As for `CCCCCCC(CCCn1c(CCC)nc2c(N)nc3ccccc3c21)=NO`, the melting point lay within 113 to 115 °C.

Consider `COc1ccc2c(c1)CC(C(=O)NCc1ccc(C(=O)O)cc1)N2S(=O)(=O)c1ccc(-c2ccc(F)cc2F)cc1` (stereo not given), for which the melting point worked out at 143 °C.

`CC(=O)CCc1ccc(OCCCC(=O)O)cc1` gave a melting point of 97 to 99 °C.

The molecule `CCOC(=O)CN1C(=O)C(N2C(=O)c3ccccc3C2=O)CCCc2ccccc21` (stereo not given) yielded a melting point of 79 to 81 °C.

Molecule `O=C(O)Cc1ccc(-c2ccccc2F)c(F)c1` came in with a melting point of 126 to 127 °C.

As for `CNc1cn(-c2cncc(F)c2)nc1Cl`, the melting point is 118 to 119 °C.

In the case of `CS(=O)(=O)NC(=O)C(Cc1ccc(OCc2ccccc2)cc1)NC(=O)c1cn2cc(-c3ccc(Cl)cc3)ccc2n1` (stereo not given), the melting point is 232 °C.

As to `CCCCC(=O)c1ccc(OCCCC(=O)O)c(Cl)c1Cl`, the melting point is 92 to 94 °C.

The molecule `COc1ccc(F)c2c1C(=O)c1ccncc1C2=O` showed a melting point above 220 °C.

For `Nc1ccc(N2CCCCC2)c(C(=O)O)c1`, the melting point lay within 232 to 235 °C.

In turn, `CCCOc1ccc(S(=O)(=O)NC[C@@H](C(=O)NO)N2CCCCC2)cc1` showed a melting point of 147 °C.

In the case of `O=C(CN1C(=O)CC1SCc1ccccc1)NCCCCCCc1ccc(F)cc1F` (stereo not given), the melting point fell in the range of 65 to 66 °C.

The molecule `Cc1c(N)cccc1C1=NC(C)(C)CO1` returned a melting point of 45 °C.

Molecule `O=C(c1ccc(Oc2ccccc2)cc1)c1cccc(C(=O)c2ccc(Oc3ccccc3)cc2)c1` gave a melting point of 117 to 119 °C.

Take `CCOC(=O)c1cnn(-c2ccc(N)cc2)c1C(F)(F)F`: the melting point was 102 to 103 °C.

Consider `CC(=O)NC(C)Cc1cc(C)c(C)cc1CC#N` (stereo not given), for which the melting point was 140 to 141 °C.

As to `c1c(NC23CC4CC(CC(C4)C2)C3)nc(N2CCCC2)nc1N1CCNCC1`, the melting point lay in the range of 152 to 156 °C.

Molecule `COc1cc(-c2cncn2-c2ccc(S(C)(=O)=O)cc2)ccc1C` yielded a melting point of 174 to 175 °C.

As for `COC(=O)C(C)=CNC(=O)Nc1cc(C(=O)OC(C)C)c(Cl)cc1F`, the melting point is 189 to 190 °C.

In turn, `O=c1[nH]nc2n1C=Cc1ccccc1C2` showed a melting point of 208 to 210 °C.

For the molecule `O=C(Nc1ccc(-c2ccc(-c3ccc(NC(=O)c4ccccc4)cc3)o2)cc1)c1ccccc1`, the melting point is 312 to 314 °C.

Molecule `CC1(C)CC(c2ccccc2)c2ccc(OCC3CO3)cc2O1` (stereo not given) displayed a melting point of 82 to 85 °C.

`CC1(C)OC(=O)Nc2ccc(-c3cncc(C#N)c3)cc21` returned a melting point of 290 to 291 °C.

Molecule `Cc1c(C(=O)c2ccc(Cl)c(S(N)(=O)=O)c2)[nH]c2ccccc12` returned a melting point of 205 °C.

`CN(CCOc1ccc(CC(Cl)C(=O)O)cc1)c1nc2ccccc2o1` (stereo not given) gave a melting point of 142 to 143 °C.

`CN1CCN(C(=O)c2ccc(-c3cnc4c(c3)N(Cc3cc(F)ccc3F)CCN4)cc2)CC1` displayed a melting point of 180 °C.

In the case of `O=C(O)CCCNC(=O)S[C@@H]1CC(=O)N(Cc2ccc(Oc3ccc(F)cc3)nc2)C1`, the melting point lay within 131 to 132 °C.

`CC[C@H](NC(=O)OCC1c2ccccc2-c2ccccc21)[C@@H](O)C(=O)O` returned a melting point of 160 to 162 °C.

In the case of `CCOC(=O)c1ccc(NC(=O)CC(CNS(=O)(=O)c2ccc(C)cc2)c2ccccc2)cc1` (stereo not given), the melting point was 135 to 137 °C.

`O=C(CCCCCBr)Nc1ccc(O)cc1`: the melting point was in the range of 124 to 125 °C.

Molecule `CCOC(=O)/C(C)=C/c1ccc(OC(C)C)cc1Oc1ncc(C(F)(F)F)cc1Cl` had a melting point of 61 to 62 °C.

Take `Cc1nc(Cl)ccc1C#N`: the melting point was in the range of 104 to 105 °C.

The molecule `Nc1nc(-c2cc(Cl)ccc2Cl)nc(N2CC(CO)C2)n1` registered a melting point of 224 to 226 °C.

`CC1(C)C(=O)Nc2cc3oc(-c4csnn4)nc3cc21`: the melting point is above 250 °C.

Molecule `ON=CC1=NCCCS1` displayed a melting point of 114 to 115 °C.

`CC(=O)ON=C(c1ccc(OC(C)=O)cc1O)c1ccccc1F` showed a melting point of 132 to 134 °C.

For `CC(=O)Oc1ccc(-c2ccc(F)cc2)cc1C(=O)O`, the melting point lay within 134 to 137 °C.

In turn, `COc1cccc2c(=O)n3ccsc3nc12` gave a melting point of 230 to 232 °C.

In turn, `CCCCC[C@H](O)/C=C/[C@@H]1[C@H]2Cc3cccc(OC(C)=O)c3C[C@H]2C[C@H]1O` gave a melting point of 54 to 65 °C.

With `C=CC12CCC3(C)C(F)C(O)CC3C1CCc1cc(O)ccc12` (stereo not given), the melting point lay in the range of 94 to 98 °C.

Molecule `Cc1[nH]c2c(N3CCNCC3)cccc2c1S(=O)(=O)c1ccccc1` gave a melting point of 188 to 190 °C.

In the case of `C=CC(=O)N1Cc2cc(OC)ccc2SC(Cl)C1` (stereo not given), the melting point fell in the range of 97.5 to 99.5 °C.

Molecule `N#Cc1cc(-c2nc3ccccc3s2)ccc1N` returned a melting point of 207 to 211 °C.

The molecule `COc1ccc(-n2c(=O)[nH]c3c(-c4ccc(C(F)(F)F)cc4F)ncnc32)cc1` gave a melting point of 296 to 297 °C.

On to `CCOC(=O)c1cc2cc(Cl)cc([N+](=O)[O-])c2o1`, for which the melting point was in the range of 111 to 112 °C.

As to `Cc1ccccc1-c1nc(=S)n(Cc2ccccc2)[nH]1`, the melting point is 150 to 153 °C.

Molecule `O=C(NCc1cccs1)C1(c2ccc(Cl)cc2)CCCC1` displayed a melting point of 119 to 120 °C.

Consider `Cc1nc2n(c1C)CCCC2=O`, for which the melting point came out at 178 °C.

Molecule `CC(C)[C@H](NC(=O)OCc1ccccc1)C(=O)N(CC(=O)O)Cc1ccccc1` gave a melting point of 41 to 45 °C.

As for `CCOC(=O)c1ccc(NC(=O)C=C(c2ccc(OC)cc2)c2ccc(OC)cc2)cc1`, the melting point lay in the range of 156 to 159 °C.

The molecule `O=C(O)[C@H](Cc1ccccc1)C[C@@H](Cc1ccccc1)C(=O)O` had a melting point of 150 to 152 °C.

As for `CC(C#N)(c1ccccc1)c1cccnn1` (stereo not given), the melting point fell in the range of 114 to 115 °C.

In the case of `CC(=O)Nc1cc(Cl)c(C)cc1Br`, the melting point lay within 154 to 155 °C.

With `O=C(O)c1nc2ccccc2nc1Cl`, the melting point is 133 to 139 °C.

For the molecule `O=C1c2cc(Oc3ccc(F)cc3)ccc2CN1Cc1cccnc1`, the melting point was in the range of 115 to 116 °C.
